These results are taken from a melting point compilation (Tetko et al.; mined from patent text by program, amines drawn as free bases though some values may be those of a salt).

SMILES strings stand for the structures.

`O=C1CCCC2=C1OC(CC(=O)c1ccccc1)(c1ccccc1)C=C2c1ccccc1` (configuration not stated) registered a melting point of 178 to 179 °C.

Molecule `Cc1oc(-c2ccccc2)nc1CCOc1ccc(COc2nn(C)cc2CC(=O)O)cc1` came in with a melting point of 148 to 149 °C. In turn, `CN1c2cc(Cl)ccc2-c2nc3ccccc3c3cc(OS(=O)(=O)C(F)(F)F)cc1c23` registered a melting point of 239 to 241 °C. `CCCNC(=O)C1(CCCCc2ccc(N3Cc4ccccc4C3=O)cc2)c2ccccc2-c2ccccc21` yielded a melting point of 147 to 148 °C. Then `COP(=O)(CCC(C)(C)c1ccc(O)cc1)OC`, with 98 to 101 °C; and `Cc1ccc(SN(C)C(=O)Oc2cccc3c2OC(C)(C)C3)cc1`, with 62 °C; and `C=CCC(C)(CC=C)C(=O)O[C@H]1C[C@H](O)C=C2C=C[C@H](C)[C@H](CC[C@@H]3C[C@@H](O)CC(=O)O3)[C@H]21`, with 115 to 116 °C. Molecule `Cc1ccc(-c2cc(NCCNc3cc(-c4ccc(C)cc4)[nH]n3)n[nH]2)cc1` had a melting point of 179 °C. For `CCCCCCCCCCCCCCCCCCOC(=O)C(N)Cc1ccc(N)cc1` (configuration not stated) the value was 54 to 56 °C; for `CC(=O)NC[C@H]1CN(c2ccc(N3CCC(n4nnc(N5CCN(C(C)=O)CC5)n4)CC3)c(F)c2)C(=O)O1`, 216 to 218 °C; for `CCOC(=O)C(=O)Nc1ccc(C)cc1[N+](=O)[O-]`, 126 °C. Take `COc1ccc(-c2c(C#N)c(CNS(=O)(=O)c3c(F)cccc3F)nn2-c2ccc(Cl)cc2Cl)cc1`: the melting point is 170 °C. With `CCCCCCCN(CCCCCSc1nc2cc(C)ccc2[nH]1)C(=O)Nc1ccc(F)cc1F`, the melting point lay in the range of 70 to 72 °C.

`Cc1cc(OCc2ccccc2)c(C)cc1C=O` registered a melting point of 48 to 49 °C. In turn, `Brc1cncc(C2CCCCN2)c1` (configuration not stated) came in with a melting point of 97 to 97.5 °C.

`COc1ccc(CNc2nnc(-c3ccc(C(F)(F)F)cc3)cc2C(F)(F)F)cc1` had a melting point of 101 to 103 °C.

`C=CCNC(=S)Nc1cc(=N)n2c(n1)SCC2` gave a melting point of 225 to 226 °C. In the case of `O=C1CCC(=O)N1CC#CCn1ccnc1`, the melting point lay within 120 to 122 °C. In turn, `CCCc1ncc(CN2C(=O)c3ccccc3C2=O)s1` gave a melting point of 72 °C.

As to `O=C1NC(=O)C(Cc2ccc3nc(Cc4ccc(Cl)cc4)oc3c2)S1` (configuration not stated), the melting point amounted to 220 °C. `CSc1nc(-c2cc(C(C)(C)C)c(O)c(C(C)(C)C)c2)c(-c2ccccc2)[nH]1` had a melting point of 129 to 131 °C. Consider `C[C@H](c1ccccc1)N1CCO[C@@H](c2ccc(Br)cc2)C1`, for which the melting point was in the range of 85 to 87 °C.

Consider `CC(C)C(N)C(=O)NC(Cc1ccccc1)C(O)C(O)C(Cc1ccccc1)NC(=O)C(N)C(C)C` (configuration not stated), for which the melting point lay in the range of 205 to 207 °C. `Cc1cccc2c(=O)[nH]c(N3CCC(N(C)C)CC3)cc12` showed a melting point of 217 to 218 °C.

`CCCOC1(C=O)C=CCC(OC)(N2CCC(c3noc4cc(F)ccc34)CC2)C1O` (configuration not stated) had a melting point of 107 to 108 °C. `COc1ccc(-c2cc(C)cn2-c2ccc(S(N)(=O)=O)cc2)cc1F`: the melting point lay within 170 to 173 °C. On to `CCCCc1ccc(N2CCN(C(=O)Nc3nc(C)c(C)nc3OC)CC2)cc1`, for which the melting point lay within 121 to 123 °C. As to `CCOC(=O)C1(C(=O)OCC)CCC2(CC1)c1cc(OC)c(OC)cc1CCN2C(=O)OCc1ccccc1`, the melting point was in the range of 101 to 102 °C. For `CCCc1c(OCCCSc2ccc(CC(=O)OC)c(Cl)c2Cl)ccc(C(C)=O)c1O` the value was 82 to 85 °C; for `CCn1nc(-c2ccc(OC)c(F)c2)c(-c2ccc(OC)cc2)cc1=O`, 123 to 124 °C. Molecule `CC(=O)NC(=O)C(SC(C)=O)c1ccccc1` (configuration not stated) gave a melting point of 96 °C. `O=C(NCCCn1ccnc1)c1ccco1` yielded a melting point of 111 to 113 °C.

`CC(C)(C)OC(=O)N1C(=O)C(C2=COc3ccccc3O2)=C(c2cn(C(=O)OC(C)(C)C)c3ccc(OCc4ccccc4)cc23)C1=O` came in with a melting point of 76 °C. In the case of `O=C(O)c1ccccc1-c1cc(-c2ccccc2)[nH]n1`, the melting point lay in the range of 204 to 206 °C. For `CC1(CCc2ccccc2)OC(=O)CC(=O)O1` the value was 63 to 65 °C; for `CN(CCCO)c1ccnc(CSc2nc3ccccc3[nH]2)c1Cl`, 127 to 130 °C. As for `COc1ccc(C(O)CN2CCNC2=S)cc1` (configuration not stated), the melting point turned out to be 110 °C. As for `Cc1c(-c2cccnc2)n(Cc2ccc(C#N)cc2)c2ccccc12`, the melting point was in the range of 127 to 129 °C. `CCOC(=O)C1=C(COCCNC(=O)N2CCNC2=O)NC(C)=C(C(=O)OC)C1c1ccccc1Cl` (configuration not stated) yielded a melting point of 145 °C. Turning to `Nc1ccccc1OCCCN1CCC(OC(c2ccccc2)c2ccccc2)CC1`, the melting point is 86 to 88 °C.

`O=C1NCN(c2ccc(Cl)cc2)C12CCN(Cc1ccnc(-c3ccc(Cl)cc3)c1)CC2` showed a melting point of 223 to 225 °C. As for `CCc1nc2c(C)cc(C)nc2n1-c1ccc(CC(C)NC(=O)NS(=O)(=O)c2ccc(C)cc2)cc1` (configuration not stated), the melting point came to 128 °C. Then `CCCCCC(CCn1ccnc1)SCc1ccc(Cl)cc1Cl` (configuration not stated), with 124 to 126 °C. As for `NCC(=O)Nc1cccc(C(N)=O)c1`, the melting point lay within 139 to 140 °C. For `Oc1ccc([C@H]2OCCN3[C@@H](CCc4ccccc4)CC[C@H]23)cc1` (racemic), the melting point lay in the range of 170 to 172 °C. For `CCOCN1C(C)=C(C(=O)OCC)C(c2cccc([N+](=O)[O-])c2)C(C(=O)OCC)=C1C`, the melting point is 125 °C. Turning to `COC(=O)C1CC(=O)NC(Cc2ccccc2)C1=O` (configuration not stated), the melting point lay within 146 to 148 °C. In turn, `Cc1ccc(S(=O)(=O)NC(=O)n2sc(Cl)cc2=O)cc1` had a melting point of 125 to 128 °C. `O=C(C1CCCCC1)N1CC(=O)N(CCc2ccccc2)C(O)C1` (configuration not stated) came in with a melting point of 134 °C. Then `Cc1ccc(-c2ssc(=S)c2C)nn1`, with 168 °C. For `COCCOc1cc(/C=C/C(=O)NS(=O)(=O)CCC(C)C)n(Cc2ccc(C(F)(F)F)cc2Cl)n1` the value was 114 to 116 °C. Then `O=C1NC(O)C2=C1CN=C(c1ccccc1Cl)c1cc(Cl)ccc12` (configuration not stated), with 247 to 249 °C; and `COc1ccc(OCc2cccc(OCc3ccc4ccccc4n3)c2)cc1`, with 83 to 85 °C; and `CCCCN1CCC(O)(c2cccn2Cc2ccccc2F)CC1`, with 132 to 135 °C.

`CC(C)Cc1cncc(O)n1` yielded a melting point of 130 to 131 °C. For `CNC(=C[N+](=O)[O-])NCCSCc1nccc(NC(N)=NCC(F)(F)F)n1` the value was 154 to 157 °C; for `COc1ccc(Nc2nc(NC3CCCCCC3)nc(Oc3ccc(I)cc3)n2)cc1Cl`, 80 to 82 °C. For `O=C(Nc1ccc2[nH]c(=O)oc2c1)C(=O)N1CCC(Oc2ccc(Cl)cc2)CC1`, the melting point was 242 to 244 °C.

In turn, `Cc1[nH]c(=S)n(Nc2cccc(Cl)c2)c1C(=O)O` returned a melting point of 166 to 168 °C. `O=C(O)CSc1nc(Cl)cc(Cl)n1`: the melting point was 120 to 122 °C. In the case of `CN1C(=O)C(NC(=O)C23CC4CC(CC(C4)C2)C3)N=C(c2ccccc2)c2ccccc21` (racemic), the melting point lay within 256 to 257 °C. `CS(=O)(=O)NCCCCCCCCn1cnc2c(N)nc3ccccc3c21` registered a melting point of 153 to 155 °C.

`Cn1c(C(F)(F)F)cc(=O)n(-c2ccc(Cl)c(C=C(Cl)C(=O)O)c2)c1=O`: the melting point is 216 to 217 °C.

In the case of `CCOC(=O)c1nc(-c2ccc(Cl)cc2)c(F)c(N)c1Cl`, the melting point is 103 to 104 °C. For `COc1ccc2cnc(=O)[nH]c2c1C1CCCC1` the value was 201 to 204 °C; for `O=Cc1cn(Cc2ccccc2)nc1OCc1ccccc1`, 85 to 86 °C. For the molecule `COc1ccc(Cl)cc1C(=O)NCCc1ccc(-c2ccccc2)c(S(N)(=O)=O)c1`, the melting point lay within 134 to 136 °C. Turning to `CC(C)(C)C1CCC(OO)(OO)CC1`, the melting point was 83 to 84 °C. Molecule `Cc1cc(Cl)nnc1-c1ccc(Br)cc1` registered a melting point of 197 to 200 °C. For `COc1cc(F)cc(-c2ccc3c(c2)C(C)(C)OC(=O)N3)c1` the value was 181 to 182 °C. Molecule `COc1ccc(COC(=O)n2c(S(=O)Cc3ccc(C)cn3)nc3cscc32)cc1` (configuration not stated) came in with a melting point of 119 to 120 °C. On to `COC(=O)[C@H](Cc1ccc(NC(=O)c2c(Cl)cccc2Cl)cc1)NC(=O)c1ccc(-n2nnnc2NCc2cccc(O)c2)cc1Cl`, for which the melting point was in the range of 155 to 158 °C. Then `Clc1ccc2oc(SCCN3CCC(OC(c4ccccc4)c4ccccc4)CC3)nc2c1`, with 98 to 101 °C; and `C=C1C=CC=C1Cc1ccc(O)cc1`, with 143 to 144 °C; and `CC(C)(C)ONC(=O)n1cc(C(=O)C2CSC(c3cccnc3)N2)c2ccccc21` (configuration not stated), with 101 to 103 °C.

In turn, `CC1=C(C(=O)OCCCO[N+](=O)[O-])C(c2cccc([N+](=O)[O-])c2)C(C(=O)OCCCO[N+](=O)[O-])=C(N)N1` (configuration not stated) yielded a melting point of 145 to 146 °C. For the molecule `COc1ccc(OCC(N)=O)c([N+](=O)[O-])c1`, the melting point was in the range of 190 to 191 °C.

As to `CCOC(=O)C1=C(O)c2ccc3ccccc3c2S(=O)(=O)N1C`, the melting point lay within 163 to 165 °C. `CCn1c(-c2ccc(Cl)cc2)n[nH]c1=O` came in with a melting point of 188 to 189 °C. Then `O=C1C(Cc2ccccc2)CCCCCC1Cc1ccccc1` (configuration not stated), with 66 to 68 °C.

Take `O=C(O)CCc1oc(-c2ccc3c(c2)OCO3)nc1-c1ccc(Cl)cc1`: the melting point is 199 to 200 °C. As for `CCN(CCCCC1CCN(C(c2ccccc2)c2ccccc2)CC1)C(=O)C=Cc1cccnc1`, the melting point lay in the range of 115 to 117 °C. Consider `CN(C)C1(c2cccs2)CCC(=O)CC1`, for which the melting point fell in the range of 102 to 103 °C. On to `O=C(CCc1ccncc1)Nc1cccc(-c2ccnc3c(C(=O)c4cccs4)cnn23)c1`, for which the melting point lay within 176 to 181 °C. For `COc1ccccc1[C@@]1(O)[C@H](O)CC(c2ccccc2)(c2ccccc2)[C@@H]2CN(C(=O)Cc3ccccc3N(C)C)C[C@@H]21` (racemic) the value was 175 to 177 °C; for `CCOC(=O)c1c(N2CCN(C)CC2)c2ccccc2n(C)c1=O`, 144 to 148 °C.

Consider `COc1ccc(N(C)C(C)=O)cc1C`, for which the melting point is 65 to 66 °C.

As usually defined, the melting point is the temperature of the solid-liquid transition.
